The values below come from patent publication US7625951B2, “Stimuli-responsive hydrogel microdomes integrated with genetically engineered proteins for high-throughput screening of pharmaceuticals” (University of Kentucky Research Foundation, priority 2000, dated 2009).

The test system of one test is calmodulin (CaM). As to the kind of experiment: Swelling response of CaM-integrated hydrogel / hydrogel microdomes to free ligand.
Another test relates to calmodulin (CaM109). As to the kind of experiment: Fluorescence assay of conformation change in fluorophore (MDCC)-labeled CaM109 monomer and dimer. In kind it is binding. The following applies: added to labeled calmodulin molecules that had already bound calcium.

Molecules are shown by their SMILES.

Excerpt for calmodulin (CaM): The hydrogel can swell when chlorpromazine (CPZ) is integrated into the hydrogel polymer network because immobilized phenothiazine is displaced from CaM by free CPZ. Phenothiazine is released from its CaM binding site and replaced by CPZ creating a relaxation of polymer chains. This relaxation allows more water to permeate the porous hydrogel polymer network, thus hydrogel swelling occurs.
In the first stage, CaM is bound to a phenothiazine. In the presence of CPZ, competitive binding occurs, and the non-covalent crosslinking is released creating expansion of the hydrogel network.
While the collective array can be used to visually screen for an analyte, the individually addressable microdome array is analyzed using a laser screening system to detect the change in height of the microdomes. The initial size of the hydrogel microdome, including the height of the microdome, is determined using the stylus profilometer. […] The microdome array 22 on substrate 24 is placed on a stage micrometer 26. A light generating means 14 such as a laser diode generates a light beam 16 that is reflected off the top of microdome 22 to produce a diffracted light 18 that is captured by photodiode 20. By positioning the microdome 22 on the stage micrometer 26, the initial height of the microdome can be determined by the amount of light deflected off the top of the microdome 22 by counting the number of photons detected by the photodiode 20.
After the initial reading, the microdome is not moved. A test solution is applied to the microdome for about 1 to 3½ minutes and then is removed and if the microdome swells, the amount of photons emitted off the microdome will change due to the swelling. The swell time for the hydrogel microdome is about 3½ minutes after the solution is applied to the microdome. […] After the test, the stage micrometer can be adjusted to bring another near by microdome in the array into the sensing area.
Excerpt for calmodulin (CaM109): In order to measure the extent of conformation change in CaM molecules in response to calcium and phenothiazine binding, a system has been developed in which a fluorophore is conjugated to a cysteine residue that had been inserted at amino acid 109 of wild type CaM using methods well known to those skilled in the art. This CaM mutant was called CaM109. The fluorescence of the fluorophore increases as the conformation of CaM changes in the presence of calcium.
Since wild-type CaM contains no cysteines, the addition of a cysteine to CaM at a desired position within the protein, allows for labeling of the protein at this position. Such labeling was done using a thiol-reactive fluorescent label called N-[2-(1-maleimidyl)ethyl]-7-(diethylamino)coumarin-3-carboxamide, or MDCC.
The fluorescence response of MDCC-labeled, CaM109 molecules was recorded in the absence and presence of 3×10^6 M Ca^++. The Ca^++ concentration was controlled by EGTA at pH 8.0, and the free Ca^++ concentrations were calculated using the software program Chelator (Haugland, 1996, Handbook of Fluorescent Probes and Research Chemicals, 6th edition, Molecular Probes, Eugene, Oreg., p. 52).

Consider `CN(C)CCCN1c2ccccc2Sc2ccc(Cl)cc21` [chlorpromazine], for which the “binding affinity for CaM (relative)” value with calmodulin (CaM) (displacement of immobilized phenothiazine from the CaM binding site in the hydrogel) is “higher binding affinity for CaM than phenothiazine”. The “swelling of protein-hydrogel microdomes” value in the test on calmodulin (CaM) (microdomes on polymethyl methacrylate or silanized glass slides) is given as “swelling occurred”. Further, in the test with calmodulin (CaM) (phenothiazine derivative replaced with 4-phenyl-1-butene, swelling irreversible, FIG. 17), the “swelling of CaM hydrogel with immobilized phenyl ligand (4-phenyl-1-butene)” value is given as “the hydrogel swells”.
Turning to `c1ccc2c(c1)Nc1ccccc1S2` [phenothiazine], the fluorescence quenched with calmodulin (CaM109) stood at 100%.
